Test system: 171881-019-R-J1-PDC tumor spheroids, viability
Test: Anticancer human tumor 171881-019-R-J1-PDC patient-derived invasive breast carcinoma cell line growth inhibition [GQUAD]
Settings: spheroids with HUVEC and MSC; for IC50: curve of first compound; for viability, T/C: stronger effect = lower value; active = viability on the fitted dose curve at most 10% of control; inactive = the rest
Procedure, shortened: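 Tumor cells were grown as complex spheroids with HUVEC endothelial cells and mesenchymal stem cells as stroma. G-quadruplex stabilizers were combined with targeted agents over half-log dilutions from near the clinical Cmax, or from 10 microM.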

[1] = second compound 0.0316 µM, first compound 0.000999 µM
[2] = second compound 0.0316 µM, first compound 0.00316 µM
[3] = second compound 0.0316 µM, first compound 0.00999 µM
[4] = second compound 0.0316 µM, first compound 0.0316 µM
[5] = second compound 0.0316 µM, first compound 0.0999 µM
[6] = second compound 0.0316 µM, first compound 0.316 µM
[7] = second compound 0.1 µM, first compound 0.000999 µM
[8] = second compound 0.1 µM, first compound 0.00316 µM
[9] = second compound 0.1 µM, first compound 0.00999 µM
[10] = second compound 0.1 µM, first compound 0.0316 µM
[11] = second compound 0.1 µM, first compound 0.0999 µM
[12] = second compound 0.1 µM, first compound 0.316 µM
[13] = second compound 0.316 µM, first compound 0.000999 µM
[14] = second compound 0.316 µM, first compound 0.00316 µM
[15] = second compound 0.316 µM, first compound 0.00999 µM
[16] = second compound 0.316 µM, first compound 0.0316 µM
[17] = second compound 0.316 µM, first compound 0.0999 µM
[18] = second compound 0.316 µM, first compound 0.316 µM
[19] = second compound 1 µM, first compound 0.000999 µM
[20] = second compound 1 µM, first compound 0.00316 µM
[21] = second compound 1 µM, first compound 0.00999 µM
[22] = second compound 1 µM, first compound 0.0316 µM
[23] = second compound 1 µM, first compound 0.0999 µM
[24] = second compound 1 µM, first compound 0.316 µM
[25] = second compound 3.16 µM, first compound 0.000999 µM
[26] = second compound 3.16 µM, first compound 0.00316 µM
[27] = second compound 3.16 µM, first compound 0.00999 µM
[28] = second compound 3.16 µM, first compound 0.0316 µM
[29] = second compound 3.16 µM, first compound 0.0999 µM
[30] = second compound 3.16 µM, first compound 0.316 µM
[31] = second compound 10 µM, first compound 0.000999 µM
[32] = second compound 10 µM, first compound 0.00316 µM
[33] = second compound 10 µM, first compound 0.00999 µM
[34] = second compound 10 µM, first compound 0.0316 µM
[35] = second compound 10 µM, first compound 0.0999 µM
[36] = second compound 10 µM, first compound 0.316 µM
[37] = second compound 0.0316 µM, first compound 0.1 µM
[38] = second compound 0.0316 µM, first compound 1 µM
[39] = second compound 0.0316 µM, first compound 3.16 µM
[40] = second compound 0.0316 µM, first compound 10 µM
[41] = second compound 0.1 µM, first compound 0.1 µM
[42] = second compound 0.1 µM, first compound 1 µM
[43] = second compound 0.1 µM, first compound 3.16 µM
[44] = second compound 0.1 µM, first compound 10 µM
[45] = second compound 0.316 µM, first compound 0.1 µM
[46] = second compound 0.316 µM, first compound 1 µM
[47] = second compound 0.316 µM, first compound 3.16 µM
[48] = second compound 0.316 µM, first compound 10 µM
[49] = second compound 1 µM, first compound 0.1 µM
[50] = second compound 1 µM, first compound 1 µM
[51] = second compound 1 µM, first compound 3.16 µM
[52] = second compound 1 µM, first compound 10 µM
[53] = second compound 3.16 µM, first compound 0.1 µM
[54] = second compound 3.16 µM, first compound 1 µM
[55] = second compound 3.16 µM, first compound 3.16 µM
[56] = second compound 3.16 µM, first compound 10 µM
[57] = second compound 10 µM, first compound 0.1 µM
[58] = second compound 10 µM, first compound 1 µM
[59] = second compound 10 µM, first compound 3.16 µM
[60] = second compound 10 µM, first compound 10 µM
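Note: spheroids exposed to compounds for 7 days.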
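Throughout, for viability, T/C: 100% = DMSO vehicle control viability.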

CC[C@@]1(O)C(=O)OCc2c1cc1n(c2=O)Cc2cc3c(CN(C)C)c(O)ccc3nc2-1 + Cc1cnc(CNC(=O)c2c(=O)c3ccc(N4CCCN(C)CC4)nc3n3c2sc2ccccc23)cn1
0.0838 µM: IC50 (second compound 0.0316 µM)
inactive: viability, T/C [1] 96.2% | viability, T/C [2] 93.7% | viability, T/C [3] 89.8% | viability, T/C [4] 72.3% | viability, T/C [5] 45.2% | viability, T/C [6] 40.8% | viability, T/C [7] 89.5% | viability, T/C [8] 78.6% | viability, T/C [9] 76.7% | viability, T/C [10] 64.1% | viability, T/C [11] 50% | viability, T/C [12] 45.8% | viability, T/C [13] 74% | viability, T/C [14] 73.1% | viability, T/C [15] 68.9% | viability, T/C [16] 60.8% | viability, T/C [17] 61.3% | viability, T/C [18] 50.9% | viability, T/C [19] 71.6% | viability, T/C [20] 63.2% | viability, T/C [21] 65.7% | viability, T/C [22] 60.7% | viability, T/C [23] 56.4% | viability, T/C [24] 50.7% | viability, T/C [25] 63.1% | viability, T/C [26] 59.9% | viability, T/C [27] 62.7% | viability, T/C [28] 57% | viability, T/C [29] 58.4% | viability, T/C [30] 50.7% | viability, T/C [31] 58.5% | viability, T/C [32] 54.4% | viability, T/C [33] 54.8% | viability, T/C [34] 59.7% | viability, T/C [35] 60.5% | viability, T/C [36] 48%
0.141 µM: IC50 (second compound 0.1 µM)
> 0.316 µM: IC50 (second compound 0.316 µM) | IC50 (second compound 1 µM) | IC50 (second compound 3.16 µM) | IC50 (second compound 10 µM)

CCc1c2c(nc3ccc(O)cc13)-c1cc3c(c(=O)n1C2)COC(=O)[C@]3(O)CC + Cc1cnc(CNC(=O)c2c(=O)c3ccc(N4CCCN(C)CC4)nc3n3c2sc2ccccc23)cn1
0.00209 µM: IC50 (second compound 0.0316 µM)
0.00726 µM: IC50 (second compound 3.16 µM)
0.00853 µM: IC50 (second compound 1 µM)
0.00331 µM: IC50 (second compound 0.1 µM)
inactive: viability, T/C [1] 62.6% | viability, T/C [2] 39.1% | viability, T/C [3] 36.5% | viability, T/C [4] 30.9% | viability, T/C [5] 26.2% | viability, T/C [6] 19.9% | viability, T/C [7] 57.7% | viability, T/C [8] 49.3% | viability, T/C [9] 43.5% | viability, T/C [10] 35.3% | viability, T/C [11] 26.4% | viability, T/C [12] 20.2% | viability, T/C [13] 61.6% | viability, T/C [14] 55.5% | viability, T/C [15] 46.1% | viability, T/C [16] 35.5% | viability, T/C [17] 27.7% | viability, T/C [18] 18.8% | viability, T/C [19] 60.3% | viability, T/C [20] 53.2% | viability, T/C [21] 51.6% | viability, T/C [22] 34.3% | viability, T/C [23] 24% | viability, T/C [24] 15.8% | viability, T/C [25] 60.8% | viability, T/C [26] 50.1% | viability, T/C [27] 52.9% | viability, T/C [28] 35.4% | viability, T/C [29] 26% | viability, T/C [30] 13.8% | viability, T/C [31] 52.3% | viability, T/C [32] 55.1% | viability, T/C [33] 47.4% | viability, T/C [34] 37.3% | viability, T/C [35] 24.8% | viability, T/C [36] 12.6%
0.00581 µM: IC50 (second compound 0.316 µM)
0.0059 µM: IC50 (second compound 10 µM)

COc1cccc2c1C(=O)c1c(O)c3c(c(O)c1C2=O)CC(O)(C(=O)CO)CC3OC1CC(N)C(O)C(C)O1 (stereo not given) + Cc1cnc(CNC(=O)c2c(=O)c3ccc(N4CCCN(C)CC4)nc3n3c2sc2ccccc23)cn1
0.169 µM: IC50 (second compound 0.316 µM)
0.153 µM: IC50 (second compound 0.0316 µM)
0.155 µM: IC50 (second compound 1 µM)
active: viability, T/C [39] 0.14% | viability, T/C [40] 0.9% | viability, T/C [43] 0.14% | viability, T/C [44] 0.43% | viability, T/C [47] 0.32% | viability, T/C [48] 0.4% | viability, T/C [51] 0.12% | viability, T/C [52] 0.16% | viability, T/C [55] 0.2% | viability, T/C [56] 0.14% | viability, T/C [58] 9.6% | viability, T/C [59] 0.2% | viability, T/C [60] 0.69%
0.159 µM: IC50 (second compound 0.1 µM)
inactive: viability, T/C [4] 70.5% | viability, T/C [37] 54.8% | viability, T/C [6] 39% | viability, T/C [38] 13.5% | viability, T/C [10] 70.2% | viability, T/C [41] 57.4% | viability, T/C [12] 37.8% | viability, T/C [42] 13.7% | viability, T/C [16] 62.9% | viability, T/C [45] 59.9% | viability, T/C [18] 38.7% | viability, T/C [46] 11.7% | viability, T/C [22] 61.8% | viability, T/C [49] 53.2% | viability, T/C [24] 41.2% | viability, T/C [50] 11.4% | viability, T/C [28] 59.1% | viability, T/C [53] 52.5% | viability, T/C [30] 39.3% | viability, T/C [54] 10.6% | viability, T/C [34] 59.9% | viability, T/C [57] 55.9% | viability, T/C [36] 35.3%
0.138 µM: IC50 (second compound 10 µM)
0.139 µM: IC50 (second compound 3.16 µM)

Cn1ncnc1[C@H]1c2n[nH]c(=O)c3cc(F)cc(c23)N[C@@H]1c1ccc(F)cc1 + Cc1cnc(CNC(=O)c2c(=O)c3ccc(N4CCCN(C)CC4)nc3n3c2sc2ccccc23)cn1
> 0.316 µM: IC50 (second compound 0.0316 µM) | IC50 (second compound 0.1 µM) | IC50 (second compound 0.316 µM) | IC50 (second compound 1 µM) | IC50 (second compound 3.16 µM) | IC50 (second compound 10 µM)
inactive: viability, T/C [1] 94.5% | viability, T/C [2] 86.1% | viability, T/C [3] 95.2% | viability, T/C [4] 87.2% | viability, T/C [5] 79.1% | viability, T/C [6] 73.6% | viability, T/C [7] 82.2% | viability, T/C [8] 83.2% | viability, T/C [9] 82.4% | viability, T/C [10] 76% | viability, T/C [11] 63.3% | viability, T/C [12] 59.9% | viability, T/C [13] 73.7% | viability, T/C [14] 74.3% | viability, T/C [15] 67.5% | viability, T/C [16] 63.5% | viability, T/C [17] 64.4% | viability, T/C [18] 65.1% | viability, T/C [19] 68% | viability, T/C [20] 59.8% | viability, T/C [21] 70.4% | viability, T/C [22] 63.5% | viability, T/C [23] 63.5% | viability, T/C [24] 61.9% | viability, T/C [25] 61.3% | viability, T/C [26] 60.1% | viability, T/C [27] 61.2% | viability, T/C [28] 64.7% | viability, T/C [29] 65.1% | viability, T/C [30] 59.1% | viability, T/C [31] 58.6% | viability, T/C [32] 63% | viability, T/C [33] 60.4% | viability, T/C [34] 59.9% | viability, T/C [35] 65.9% | viability, T/C [36] 60.4%

Nc1ccn(C2OC(CO)C(O)C2(F)F)c(=O)n1 (stereo not given) + Cc1cnc(CNC(=O)c2c(=O)c3ccc(N4CCCN(C)CC4)nc3n3c2sc2ccccc23)cn1
< 0.0316 µM: IC50 (second compound 0.0316 µM) | IC50 (second compound 0.1 µM) | IC50 (second compound 0.316 µM) | IC50 (second compound 1 µM) | IC50 (second compound 3.16 µM) | IC50 (second compound 10 µM)
inactive: viability, T/C [4] 27.8% | viability, T/C [37] 29.9% | viability, T/C [6] 39.4% | viability, T/C [38] 38% | viability, T/C [39] 33.7% | viability, T/C [40] 31.2% | viability, T/C [10] 29.8% | viability, T/C [41] 31.9% | viability, T/C [12] 37.1% | viability, T/C [42] 41.4% | viability, T/C [43] 37% | viability, T/C [44] 33.8% | viability, T/C [16] 31.5% | viability, T/C [45] 36.2% | viability, T/C [18] 44% | viability, T/C [46] 37.9% | viability, T/C [47] 39.1% | viability, T/C [48] 34.7% | viability, T/C [22] 35% | viability, T/C [49] 35.6% | viability, T/C [24] 42.7% | viability, T/C [50] 41.2% | viability, T/C [51] 44.2% | viability, T/C [52] 37.3% | viability, T/C [28] 36.2% | viability, T/C [53] 38.6% | viability, T/C [30] 43.8% | viability, T/C [54] 43.3% | viability, T/C [55] 44.9% | viability, T/C [56] 40% | viability, T/C [34] 33.2% | viability, T/C [57] 37.3% | viability, T/C [36] 39.1% | viability, T/C [58] 45.6% | viability, T/C [59] 46% | viability, T/C [60] 40.8%

— PubChem BioAssay AID2060498 (Molecular Pharmacology Branch, DTP, NCI, 2025)
